Assay results from the NIST ThermoML archive (doi:10.1021/acs.jced.8b00387).

Experiment: xn = mol fraction of the nth substance listed
Conditions: for viscosity / mass density / speed of sound: 102 kPa, Liquid; for viscosity: Concentric cylinders viscometry; for mass density: Vibrating tube method; for speed of sound: Frequency=3 MHz, Single path-length method; for surface tension liquid-gas: 295 K, Pendant drop shape

CC(CC(C)(C)C)CC(C)(C)CC(C)(C)C (stereo not given) [2,2,4,4,6,8,8-heptamethylnonane] + CCCCCCc1ccccc1
Conditions | mass density [kg/m3] | speed of sound [m/s] | viscosity [mPa·s]
253.15 K, x2 = 0.1015 | 816.6 | – | 11.82
253.15 K, x2 = 0.2005 | 822.2 | – | 10.18
253.15 K, x2 = 0.2999 | 828 | – | 9.04
253.15 K, x2 = 0.4001 | 834.5 | – | 7.96
253.15 K, x2 = 0.4996 | 841.5 | – | 7.08
253.15 K, x2 = 0.6 | 849.4 | – | 6.37
253.15 K, x2 = 0.6999 | 857.7 | – | 5.78
253.15 K, x2 = 0.8 | 867.1 | – | 5.3
253.15 K, x2 = 0.9 | 877.1 | – | 4.94
288.15 K, x2 = 0.1015 | 792.77 | 1311.3 | –
288.15 K, x2 = 0.2005 | 798.05 | 1317.6 | –
288.15 K, x2 = 0.2999 | 803.73 | 1324.6 | –
288.15 K, x2 = 0.4001 | 810.02 | 1332 | –
288.15 K, x2 = 0.4996 | 816.74 | 1340.4 | –
288.15 K, x2 = 0.6 | 824.16 | 1349.4 | –
288.15 K, x2 = 0.6999 | 832.36 | 1359.3 | –
288.15 K, x2 = 0.8 | 841.37 | 1370 | –
288.15 K, x2 = 0.9 | 851.27 | 1382.2 | –
293.15 K, x2 = 0.1015 | 789.39 | 1292.1 | 3.37
293.15 K, x2 = 0.2005 | 794.63 | 1298.5 | 3.04
293.15 K, x2 = 0.2999 | 800.29 | 1305.4 | 2.75
293.15 K, x2 = 0.4001 | 806.56 | 1313 | 2.51
293.15 K, x2 = 0.4996 | 813.23 | 1321.1 | 2.3
293.15 K, x2 = 0.6 | 820.65 | 1330.2 | 2.12
293.15 K, x2 = 0.6999 | 828.75 | 1340.1 | 1.98
293.15 K, x2 = 0.8 | 837.7 | 1350.9 | 1.85
293.15 K, x2 = 0.9 | 847.55 | 1363 | 1.74
303.15 K, x2 = 0.1015 | 782.63 | 1254.4 | 2.68
303.15 K, x2 = 0.2005 | 787.8 | 1261.2 | 2.44
303.15 K, x2 = 0.2999 | 793.41 | 1267.7 | 2.23
303.15 K, x2 = 0.4001 | 799.59 | 1275.6 | 2.05
303.15 K, x2 = 0.4996 | 806.19 | 1283.4 | 1.89
303.15 K, x2 = 0.6 | 813.53 | 1292.4 | 1.78
303.15 K, x2 = 0.6999 | 821.53 | 1302.3 | 1.66
303.15 K, x2 = 0.8 | 830.36 | 1313.5 | 1.56
303.15 K, x2 = 0.9 | 840.1 | 1325.2 | 1.48
313.15 K, x2 = 0.1015 | 775.87 | 1217.8 | 2.19
313.15 K, x2 = 0.2005 | 780.97 | 1224.6 | 2
313.15 K, x2 = 0.2999 | 786.51 | 1231 | 1.84
313.15 K, x2 = 0.4001 | 792.62 | 1238.9 | 1.7
313.15 K, x2 = 0.4996 | 799.14 | 1246.6 | 1.58
313.15 K, x2 = 0.6 | 806.39 | 1255.5 | 1.49
313.15 K, x2 = 0.6999 | 814.29 | 1265.4 | 1.4
313.15 K, x2 = 0.8 | 823.01 | 1276.7 | 1.32
313.15 K, x2 = 0.9 | 832.64 | 1288.3 | 1.25
323.15 K, x2 = 0.1015 | 769.09 | 1181.9 | 1.82
323.15 K, x2 = 0.2005 | 774.12 | 1188.7 | 1.67
323.15 K, x2 = 0.2999 | 779.61 | 1195.1 | 1.55
323.15 K, x2 = 0.4001 | 785.63 | 1203 | 1.44
323.15 K, x2 = 0.4996 | 792.08 | 1210.5 | 1.37
323.15 K, x2 = 0.6 | 799.24 | 1219.5 | 1.28
323.15 K, x2 = 0.6999 | 807.04 | 1229.4 | 1.2
323.15 K, x2 = 0.8 | 815.65 | 1240.5 | 1.14
323.15 K, x2 = 0.9 | 825.16 | 1252 | 1.09
333.15 K, x2 = 0.1015 | 762.29 | 1147.1 | 1.53
333.15 K, x2 = 0.2005 | 767.25 | 1153.6 | 1.42
333.15 K, x2 = 0.2999 | 772.68 | 1160.3 | 1.32
333.15 K, x2 = 0.4001 | 778.62 | 1167.9 | 1.23
333.15 K, x2 = 0.4996 | 784.99 | 1175.5 | 1.18
333.15 K, x2 = 0.6 | 792.06 | 1184.4 | 1.11
333.15 K, x2 = 0.6999 | 799.77 | 1194.3 | 1.04
333.15 K, x2 = 0.8 | 808.26 | 1205.1 | 0.99
333.15 K, x2 = 0.9 | 817.65 | 1216.8 | 0.945

Conditions | surface tension liquid-gas [mN/m]
x2 = 0.1015 | 24.4
x2 = 0.2005 | 24.5
x2 = 0.2999 | 24.7
x2 = 0.4001 | 25.3
x2 = 0.4996 | 25.6
x2 = 0.6 | 25.8
x2 = 0.6999 | 26.5
x2 = 0.8 | 27.2
x2 = 0.9 | 27.9
